Assay results from BigSolDB 2.1.

solubility (mole fraction) (in n-hexane, 293.15 K) | solubility (mole fraction) (in n-hexane, 298.15 K) | solubility (mole fraction) (in n-hexane, 303.15 K) | solubility (mole fraction) (in n-hexane, 310.15 K) | solubility (mole fraction) (in n-hexane, 315.15 K) | solubility (mole fraction) (in n-octanol, 293.15 K) | solubility (mole fraction) (in n-octanol, 298.15 K) | solubility (mole fraction) (in n-octanol, 303.15 K) | solubility (mole fraction) (in n-octanol, 310.15 K) | solubility (mole fraction) (in n-octanol, 315.15 K) | SMILES
7.1e-05 | 8.71e-05 | 0.000106 | 0.000134 | 0.000161 | 0.00305 | 0.00377 | 0.00454 | 0.00605 | 0.00736 | Cc1ccc(N=C2SCC3CCCN2C3)cc1Cl (stereo not given)
0.000223 | 0.000271 | 0.000337 | 0.000422 | 0.000523 | 0.0087 | 0.0107 | 0.0131 | 0.0166 | 0.0202 | N#Cc1ccc(N=C2SCC3CCCN2C3)cc1 (stereo not given)
0.0033 | 0.00465 | 0.00654 | 0.0104 | 0.0135 | 0.145 | 0.157 | 0.171 | 0.193 | 0.209 | Cc1ccc(N=C2SCC3CCCN2C3)cc1 (stereo not given)
0.000225 | 0.000289 | 0.000382 | 0.000537 | 0.000673 | 0.0124 | 0.0139 | 0.0163 | 0.0194 | 0.0224 | CCc1ccc(N=C2SCC3CCCN2C3)cc1 (stereo not given)
0.000248 | 0.000286 | 0.000339 | 0.000402 | 0.00046 | 0.0118 | 0.0132 | 0.0146 | 0.0171 | 0.0189 | FC(F)(F)c1ccc(N=C2SCC3CCCN2C3)cc1 (stereo not given)
0.000144 | 0.000176 | 0.000215 | 0.00028 | 0.000344 | 0.0075 | 0.0093 | 0.0118 | 0.0156 | 0.0202 | CC(=O)c1ccc(N=C2SCC3CCCN2C3)cc1 (stereo not given)
0.0015 | 0.00187 | 0.00224 | 0.00294 | 0.00359 | 0.0245 | 0.0296 | 0.0354 | 0.0469 | 0.0567 | Fc1ccc(N=C2SCC3CCCN2C3)cc1 (stereo not given)
0.00135 | 0.00158 | 0.00195 | 0.00246 | 0.00288 | 0.143 | 0.154 | 0.164 | 0.182 | 0.194 | CC(C)c1ccc(N=C2SCC3CCCN2C3)cc1 (stereo not given)
